Experimental data taken from patent publication US20120283403A1, “Phenylboronic Acid Monomer and Phenylboronic Acid Polymer” (National Institute for Materials Science, priority 2010, published 2012).

Excerpt: Subsequently, for the sample 1, the comparative sample 1 and the comparative sample 2, the relationships between glucose concentrations and apparent changes in pKa were derived by acid-base titration under various glucose concentration conditions (0 g/L, 1 g/L, 3 g/L, 5 g/L, and 10 g/L).

C=CC(=O)NCCNC(=O)c1ccc(B(O)O)cc1F [sample 1, 4-(2-acrylamideethylcarbamoyl)-3-fulorophenylboronic acid]
apparent pKa (all glucose concentrations (0, 1, 3, 5 and 10 g/L), FIG. 2, samples a1 to a5): < 7.4 | degrees of decrease in pKa according to the increase in the concentrations of glucose (compared with comparative samples 1 and 2, glucose 0 to 10 g/L): excellent
